The results in this text go back to patent US10954214B2 (Janssen Pharmaceutica NV, priority 2016, dated 2021).

Structures are written as SMILES. Some results are limits rather than exact numbers.

Assay [1] addresses full-length MALT1 protein (Strep-MALT1(1-824)-His) (Homo sapiens (Human), UniProt Q9UDY8). Briefly: MALT1 Biochemical Protease Assay (Ac-LRSR-AMC substrate). As to conditions: 10 nM FL MALT1, 200 μM Ac-LRSR-AMC, 4 h at RT; read-out: MALT1_Biochemical activity (Ac-LRSR-amc) IC50. Put shortly: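 Full-length MALT1 pre-incubated with compounds (30 μM to 0.5 nM, 11 threefold steps) for 50 min at RT. After Ac-LRSR-AMC was added, the reaction ran 4 h at RT and AMC fluorescence was read. IC50 and Hill slope from curve fitting against no-enzyme and no-compound controls.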

Assay [2] deals with IL10 secretion by OCI-LY3 ABC-DLBCL cells. Briefly: Human IL10 Mesoscale assay (OCI-LY3). The format is cell-based. The note with it: Homo sapiens, 24 h. The method in brief:
(§1)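 Compounds tested from 15 μM to 58.6 nM (twofold, 9 concentrations) on 100,000 cells per well over 24 h at 37° C, without beta-mercaptoethanol. Secreted cytokine in supernatant detected by MSD electrochemiluminescence; scaling used DMSO as maximum and RN486 as full inhibition.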

The subject of assay [3] is IL10 secretion by TMD8 ABC-DLBCL cells. Briefly: Human IL10 Mesoscale assay (TMD-8). The format is cell-based. The note with it: Homo sapiens, TMD8; TMD-8 cells, 24 h. Put shortly:
as §1

Assay [4] concerns IL6 secretion by OCI-LY3 ABC-DLBCL cells. Briefly: Human IL6 Mesoscale assay (OCI-LY3). The format is cell-based. As to conditions: Homo sapiens, 24 h. The method in brief: as §1
Assay [5] deals with IL6 secretion by TMD8 ABC-DLBCL cells. Briefly: Human IL6 Mesoscale assay (TMD-8). The format is cell-based. As to conditions: Homo sapiens, TMD8; TMD-8 cells, 24 h. The method in brief:
as §1

The subject of the next assay is OCI-Ly3 cells. Briefly: 4-day proliferation assay, OCI-Ly3. The format is cell-based, human. As to conditions: Homo sapiens, 96 h, 4 days incubation, CellTiterGLO, read-out: Anti-proliferation: OCI-LY-3 IC50. The procedure: To assess anti-proliferative effects, MALT1 inhibitor test compounds were tested in 4-day proliferation assays using three different DLBCL cell lines.
Cells should be kept between 0.5-2.5 million cells per mL during culturing and cells should be supplemented every 2-3 days with fresh 50 μM beta-mercaptoenthanol. No beta-mercaptoethanol is used during the proliferation assay. OCI-Ly7 cells were propagated in IMDM (ThermoFisher) supplemented with 10% fetal bovine serum (HyClone), 2 mM L-glutamine (Sigma Aldrich) and 50 μg/mL Gentamycin. Cell passage numbers should not exceed 30 (for OCI-Ly3 cells with passage number lower than 10 were used).
10,000 TMD8, 10,000 OCI-Ly3 or 2,000 OCI-Ly7 cells were seeded in 100 μL media per well and incubated for 4 days at 37° C. and 5% CO2. Cell plating numbers were chosen based on growth curves to ensure linear cell growth. After 4 days of incubation 50 μL CellTiterGLO reagent (Promega) were added to each well and luminescence was measured on the Envision after 10 min of incubation at room temperature.
LC=median of the low control values
An estimate of the slope of the plot in terms of the Hill coefficient was also obtained.
On the technique in general: In ATP-based viability assays light output follows the ATP content of the culture.

Sequence of full-length MALT1 protein (Strep-MALT1(1-824)-His) (Q9UDY8 whole entry): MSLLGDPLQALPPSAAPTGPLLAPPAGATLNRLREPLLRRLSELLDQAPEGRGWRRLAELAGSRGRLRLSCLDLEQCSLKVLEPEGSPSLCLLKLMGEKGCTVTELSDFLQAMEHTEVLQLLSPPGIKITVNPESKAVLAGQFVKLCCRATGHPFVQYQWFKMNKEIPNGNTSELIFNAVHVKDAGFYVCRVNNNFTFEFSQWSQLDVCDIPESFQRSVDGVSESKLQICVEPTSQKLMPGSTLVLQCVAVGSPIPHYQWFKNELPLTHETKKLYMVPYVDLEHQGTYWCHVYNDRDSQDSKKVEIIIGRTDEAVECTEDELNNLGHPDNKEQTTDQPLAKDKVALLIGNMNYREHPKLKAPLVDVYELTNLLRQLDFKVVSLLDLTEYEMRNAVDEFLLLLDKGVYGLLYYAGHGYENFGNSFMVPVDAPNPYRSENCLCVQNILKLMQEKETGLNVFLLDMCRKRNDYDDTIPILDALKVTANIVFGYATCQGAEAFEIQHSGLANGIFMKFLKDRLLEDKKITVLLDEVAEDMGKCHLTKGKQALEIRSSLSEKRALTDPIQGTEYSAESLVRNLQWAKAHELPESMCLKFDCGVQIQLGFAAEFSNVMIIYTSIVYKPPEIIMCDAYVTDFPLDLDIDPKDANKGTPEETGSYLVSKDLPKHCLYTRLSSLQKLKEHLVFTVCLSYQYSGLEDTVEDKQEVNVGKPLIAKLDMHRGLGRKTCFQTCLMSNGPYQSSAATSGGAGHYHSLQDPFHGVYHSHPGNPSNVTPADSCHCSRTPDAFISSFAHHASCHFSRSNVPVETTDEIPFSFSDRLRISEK

For the compound `N#Cc1cc(NC(=O)c2cnn(-c3ccnc4ccsc34)c2C(F)(F)F)cnc1-n1nccn1` [Cpd 128, N-(5-cyano-6-(2H-1,2,3-triazol-2-yl)pyridin-3-yl)-1-(thieno[3,2-b]pyridin-7-yl)-5-(trifluoromethyl)-1H-pyrazole-4-carboxamide], the IC50 in assay [1] is 16 nM; in assay [2], 36 nM; in assay [3], 105 nM; in assay [4] it was 27 nM; in assay [5] it was 95 nM; with OCI-Ly3 cells it was 188 nM.

For `NC(=O)c1cnn(-c2ccc(NC(=O)c3cnn(-c4cccc5ncccc45)c3C(F)(F)F)cc2Cl)n1` [Cpd 244, 2-(2-chloro-4-(1-(quinolin-5-yl)-5-(trifluoromethyl)-1H-pyrazole-4-carboxamido)phenyl)-2H-1,2,3-triazole-4-carboxamide], the IC50 in assay [1] was determined as 398 nM; in assay [2], 155 nM; in assay [3], 245 nM; in assay [4], 174 nM; in assay [5] it was 741 nM.

For the compound `Cn1ncc2cccc(-n3ncc(C(=O)Nc4cnc(-n5nccn5)c(C#N)c4)c3C(F)(F)F)c21` [Cpd 260, N-(5-cyano-6-(2H-1,2,3-triazol-2-yl)pyridin-3-yl)-1-(1-methyl-1H-indazol-7-yl)-5-(trifluoromethyl)-1H-pyrazole-4-carboxamide], the IC50 in assay [1] is 204 nM; in assay [2], above 3020 nM; in assay [3] it was above 3020 nM; in assay [4], above 3020 nM; in assay [5] it was above 3020 nM.

Consider `Cn1ccc(-c2ncc(NC(=O)c3cnn(-c4ccc(F)c5ncccc45)c3C(F)(F)F)cc2C#N)n1` [Cpd 268, N-(5-cyano-6-(1-methyl-1H-pyrazol-3-yl)pyridin-3-yl)-1-(8-fluoroquinolin-5-yl)-5-(trifluoromethyl)-1H-pyrazole-4-carboxamide], for which the IC50 in assay [1] worked out at 155 nM; in assay [2], 63 nM; in assay [3], 229 nM; in assay [4], 95 nM; in assay [5] it was 158 nM.

Turning to `O=C(Nc1cnc(-n2nccn2)c(Cl)c1)c1cnn(-c2cccc3nc(F)ccc23)c1C(F)(F)F` [Cpd 277, N-(5-chloro-6-(2H-1,2,3-triazol-2-yl)pyridin-3-yl)-1-(2-fluoroquinolin-5-yl)-5-(trifluoromethyl)-1H-pyrazole-4-carboxamide], the IC50 is 132 nM in assay [1]; 87 nM in assay [2]; 95 nM in assay [3]; 89 nM in assay [4]; 170 nM in assay [5].

As to `Cc1nc(-n2cccn2)c(Cl)cc1NC(=O)c1cnn(-c2cccc3nnsc23)c1C(F)(F)F` [Cpd 303, 1-(benzo[d][1,2,3]thiadiazol-7-yl)-N-(5-chloro-2-methyl-6-(1H-pyrazol-1-yl)pyridin-3-yl)-5-(trifluoromethyl)-1H-pyrazole-4-carboxamide], the IC50 in assay [1] was 282 nM; in assay [2], 275 nM; in assay [3] it was 174 nM; in assay [4] it was 251 nM; in assay [5], 234 nM.

With `Cc1csc2c(-n3ncc(C(=O)Nc4cnc(-n5nccn5)c(C#N)c4)c3C(F)(F)F)ccnc12` [Cpd 310, N-(5-cyano-6-(2H-1,2,3-triazol-2-yl)pyridin-3-yl)-1-(3-methylthieno[3,2-b]pyridin-7-yl)-5-(trifluoromethyl)-1H-pyrazole-4-carboxamide], the IC50 is 52 nM in assay [1], 490 nM in assay [2], 646 nM in assay [4] and 1270 nM in the assay with OCI-Ly3 cells.

`CN(C)c1ncc(-n2ncc(C(=O)Nc3cnc(-n4nccn4)c(Cl)c3)c2C(F)(F)F)c2ccccc12` [Cpd 322, N-(5-chloro-6-(2H-1,2,3-triazol-2-yl)pyridin-3-yl)-1-(1-(dimethylamino)isoquinolin-4-yl)-5-(trifluoromethyl)-1H-pyrazole-4-carboxamide]: the IC50 in assay [1] came to 214 nM; in assay [2], 135 nM; in assay [3], 708 nM; in assay [4] it was 148 nM; in assay [5], 562 nM.

Take `O=C1COC(c2ncc(-n3ncc(C(=O)Nc4cnc(-n5nccn5)c(Cl)c4)c3C(F)(F)F)c3ccccc23)C1` (centres unmarked) [Cpd 370, N-(5-chloro-6-(2H-1,2,3-triazol-2-yl)pyridin-3-yl)-1-(1-(4-oxotetrahydrofuran-2-yl)isoquinolin-4-yl)-5-(trifluoromethyl)-1H-pyrazole-4-carboxamide]: the IC50 was found to be 107 nM in assay [1]; 10 nM in assay [2]; 46 nM in assay [3]; 13 nM in assay [4]; 54 nM in assay [5].

As to `CC(O)c1ncc(-n2ncc(C(=O)Nc3cnc(-n4nccn4)c(Cl)c3)c2C(F)(F)F)c2ccccc12` (centres unmarked) [Cpd 371, N-(5-chloro-6-(2H-1,2,3-triazol-2-yl)pyridin-3-yl)-1-(1-(1-hydroxyethyl)isoquinolin-4-yl)-5-(trifluoromethyl)-1H-pyrazole-4-carboxamide], the IC50 in assay [1] is 69 nM; in assay [2], 18 nM; in assay [3], 25 nM; in assay [4], 18 nM; in assay [5], 13 nM.

For the compound `CC(C)(C)OC(=O)N1CCC1c1nccc2c(-n3ncc(C(=O)Nc4cnc(-n5nccn5)c(Cl)c4)c3C(F)(F)F)cccc12` (centres unmarked) [Cpd 383, tert-butyl 2-(5-(4-((5-chloro-6-(2H-1,2,3-triazol-2-yl)pyridin-3-yl)carbamoyl)-5-(trifluoromethyl)-1H-pyrazol-1-yl)isoquinolin-1-yl)azetidine-1-carboxylate], the IC50 in assay [1] stood at 10000 nM; in assay [2], 36 nM; in assay [3] it was 105 nM; in assay [4], 27 nM; in assay [5] it was 95 nM.

Consider `O=C(Nc1cnc(-n2nccn2)c(Cl)c1)c1cnn(-c2cccc3c(C4CCN4)nccc23)c1C(F)(F)F` (centres unmarked) [Cpd 384, 1-(1-(azetidin-2-yl)isoquinolin-5-yl)-N-(5-chloro-6-(2H-1,2,3-triazol-2-yl)pyridin-3-yl)-5-(trifluoromethyl)-1H-pyrazole-4-carboxamide], for which the IC50 in assay [1] came to 5890 nM; in assay [2] it was 14 nM; in assay [3], 123 nM; in assay [4] it was 18 nM; in assay [5] it was 120 nM.

Take `CNC(=O)c1ncc(-n2ncc(C(=O)Nc3cnc(-n4nccn4)c(Cl)c3)c2C(F)(F)F)c2ccsc12` [Cpd 392, 4-(4-((5-chloro-6-(2H-1,2,3-triazol-2-yl)pyridin-3-yl)carbamoyl)-5-(trifluoromethyl)-1H-pyrazol-1-yl)-N-methylthieno[2,3-c]pyridine-7-carboxamide]: the IC50 turned out to be 26 nM in assay [1]; 17 nM in assay [2]; 200 nM in assay [3]; 26 nM in assay [4]; 170 nM in assay [5].

With `O=C(Nc1cnc(-n2nccn2)c(Cl)c1)c1cnn(-c2cccc3c[n+]([O-])ccc23)c1C(F)(F)F` [Cpd 407, 5-(4-((5-chloro-6-(2H-1,2,3-triazol-2-yl)pyridin-3-yl)carbamoyl)-5-(trifluoromethyl)-1H-pyrazol-1-yl)isoquinoline 2-oxide], the IC50 in assay [1] worked out at 21 nM; in assay [2], 40 nM; in assay [3], 100 nM; in assay [4], 34 nM; in assay [5] it was 110 nM.

Take `O=C(Nc1cnc(-n2nccn2)c(Cl)c1)c1cnn(-c2cccc3c2ccc[n+]3[O-])c1C(F)(F)F` [Cpd 408, 5-(4-((5-chloro-6-(2H-1,2,3-triazol-2-yl)pyridin-3-yl)carbamoyl)-5-(trifluoromethyl)-1H-pyrazol-1-yl)quinoline 1-oxide]: the IC50 in assay [1] is 112 nM; in assay [2], 81 nM; in assay [3], 162 nM; in assay [4], 54 nM; in assay [5], 141 nM.

As for `O=C(Nc1cnc(-n2nccn2)c(Cl)c1)c1cnn(-c2cccc3cnccc23)c1C(F)(F)F` [Cpd 449, N-(5-chloro-6-(2H-1,2,3-triazol-2-yl)pyridin-3-yl)-1-(isoquinolin-5-yl)-5-(trifluoromethyl)-1H-pyrazole-4-carboxamide], the IC50 was determined as 23 nM in assay [1]; 68 nM in assay [2]; 98 nM in assay [3]; 100 nM in assay [4]; 78 nM in assay [5].
